Results on 20 molecules are retold here after patent US10662204B2 (PFIZER INC., priority 2018, dated 2020).

The target of assay [1] is T1, GDP-loaded KRAS (1-169) G12C, C51S, C80L, C118S (Homo sapiens, UniProt P01116, C118S/C51S/C80L/G12C).
T1 construct: GDP-loaded KRAS (1-169) G12C, C51S, C80L, C118S
Description: Mass Spectrometry Reactivity Assay (MSRA): covalent adduct of compound and KRAS G12C, Percent Modification. In kind it is binding. The following applies: for MSRA (% modification) 10 μM 0.50 hr / MSRA (% modification) 10 μM 0.25 hr: 10 μM compound; for MSRA (% modification) 5.0 μM 0.25 hr / MSRA (% modification) 5.0 μM 0.017 hr: 5.0 μM compound. In a few lines:
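Covalent labelling is measured by intact mass: deconvoluted modified and unmodified peak intensities yield percent modification. Compound, usually 5 μM or 10 μM final, reacts at room temperature with 5 μM GDP-bound KRAS G12C (1-169, C51S/C80L/C118S) in Hepes pH 7.5/NaCl/glycerol, sampled at 1, 15, 30, 60 min.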

The target in assay [2] is KRAS G12C (Homo sapiens, UniProt P01116, G12C). Description: Cell Activity Assay: accumulation of GDP-bound KRAS G12C in MIAPaCa-2 cells (Raf-1 RBD capture, MSD readout). It is filed as cell-based. The arrangement: endogenous in cells; host or cells: MIAPaCa-2. The conditions noted are these: 6 hours, assay limit is 30.00. The gist of the method: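 IC50 came from a 4-parameter fit of Ras signal normalized between DMSO and full-inhibition controls. Readout: lysate GTP-Ras bound to immobilized Raf-1 RBD, quantified with pan-Ras antibody and MSD electrochemiluminescence. Lysates derived from MIAPaCa-2 cells treated 6 h with serially diluted compound, 0.3% DMSO.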

Consider `C=CC(=O)N1CCN(c2ncnc3c(Oc4cc(O)cc5ccccc45)nccc23)CC1` [Example 06, 1-(4-{8-[(3-Hydroxynaphthalen-1-yl)oxy]pyrido[3,4-d]pyrimidin-4-yl}piperazin-1-yl)prop-2-en-1-one], for which the “MSRA (% modification) 10 μM 0.50 hr” value in assay [1] was 20%. In assay [2], this molecule displayed an IC50 of 29.7 µM.
With `C=CC(=O)N1CCN(c2nc(OC[C@H]3CCCN3C)nc3c(Oc4c(Cl)c(F)cc5[nH]ncc45)nccc23)CC1` [Example 17E, 1-[4-(8-[(5-chloro-6-fluoro-1H-indazol-4-yl)oxy]-2-{[(2R)-1-methylpyrrolidin-2-yl]methoxy}pyrido[3,4-d]pyrimidin-4-yl)piperazin-1-yl]prop-2-en-1-one], in assay [1], the “MSRA (% modification) 5.0 μM 0.25 hr” value came to 76%, the “MSRA (% modification) 10 μM 0.25 hr” value is 80% and the “MSRA (% modification) 10 μM 0.50 hr” value is recorded as 83%. For the same molecule, half-maximal inhibition in assay [2] (IC50) required 0.197 µM.
Consider `C=CC(=O)N1CCN(c2nc(Oc3cccc4c3CCN(CC)C4)nc3c(Oc4c(C)ccc5[nH]ncc45)nccc23)CC1` [Example 31I, 1-(4-{2-[(2-ethyl-1,2,3,4-tetrahydro-isoquinolin-5-yl)oxy]-8-[(5-methyl-1H-indazol-4-yl)oxy]pyrido [3,4-d]pyrimidin-4-yl}piperazin-1-yl)prop-2-en-1-one], for which the “MSRA (% modification) 5.0 μM 0.017 hr” value in assay [1] came to 31%. The molecule further gave a half-inhibitory concentration (IC50) in assay [2] of 0.041 µM.
For the molecule `C=CC(=O)N1CCN(c2nc(OC[C@]3(F)CCN(C)C3)nc3c(Oc4c(Cl)c(F)cc5[nH]ncc45)nccc23)CC1` [Example 14H, 1-[4-(8-[(5-chloro-6-fluoro-1H-indazol-4-yl)oxy]-2-{[(3S)-3-fluoro-1-methylpyrrolidin-3-yl]methoxy}pyrido[3,4-d]pyrimidin-4-yl)piperazin-1-yl]prop-2-en-1-one], in assay [1], the “MSRA (% modification) 5.0 μM 0.25 hr” value is reported as 52% and the “MSRA (% modification) 10 μM 0.25 hr” value is listed as 81%. The IC50 in assay [2] came to 0.082 µM.
For `C=CC(=O)N1CCN(c2ncnc3c(Oc4c(Cl)c(Cl)cc5[nH]ncc45)nccc23)CC1` [Example 29A, 1-(4-{8-[(5,6-dichloro-1H-indazol-4-yl)oxy]pyrido[3,4-d]pyrimidin-4-yl}piperazin-1-yl)prop-2-en-1-one], in assay [1], the “MSRA (% modification) 10 μM 0.25 hr” value turned out to be 70% and the “MSRA (% modification) 10 μM 0.50 hr” value was determined as 76%. This molecule came in with an IC50 in assay [2] of 0.391 µM.
`C=CC(=O)N1CCN(c2nc(NCCc3nncn3C)nc3c(Oc4c(C)ccc5[nH]ncc45)cccc23)CC1` [Example 16F, 1-[4-(8-[(5-methyl-1H-indazol-4-yl)oxy]-2-{[2-(4-methyl-4H-1,2,4-triazol-3-yl)ethyl]amino}quinazolin-4-yl)piperazin-1-yl]prop-2-en-1-one]: the “MSRA (% modification) 10 μM 0.50 hr” value in assay [1] amounted to 16%. Moreover, the IC50 in assay [2] is over 30 µM.
`C=CC(=O)N1CCN(c2ncnc3c(Oc4c(C)ccc5[nH]ncc45)cc(Br)cc23)CC1` [Example 13C, 1-(4-{6-bromo-8-[(5-methyl-1H-indazol-4-yl)oxy]quinazolin-4-yl}piperazin-1-yl)prop-2-en-1-one]: in assay [1], the “MSRA (% modification) 10 μM 0.50 hr” value was 36%. This molecule also gave an IC50 in assay [2] of 3.74 µM.
The corresponding values for `C=CC(=O)N1CCN(c2nc(NCC3CCC(=O)N3)nc3c(Oc4c(C)ccc5[nH]ncc45)cccc23)CC1` (stereo not drawn) [Example 12F, 5-[({4-(4-acryloylpiperazin-1-yl)-8-[(5-methyl-1H-indazol-4-yl)oxy]quinazolin-2-yl}amino)methyl]pyrrolidin-2-one] are 20% and 29.1 µM.
As for `C=CC(=O)N1CCN(c2nc(OC[C@@H]3CCOC3)nc3c(Oc4c(Cl)c(F)cc5[nH]ncc45)nccc23)CC1` [Example 05H, 1-(4-{8-[(5-chloro-6-fluoro-1H-indazol-4-yl)oxy]-2-[(3R)-tetrahydrofuran-3-ylmethoxy]pyrido[3,4-d]pyrimidin-4-yl}piperazin-1-yl)prop-2-en-1-one], in assay [1], the “MSRA (% modification) 5.0 μM 0.25 hr” value amounted to 54% and the “MSRA (% modification) 10 μM 0.25 hr” value is 68%. For the same molecule, the midpoint of inhibition in assay [2], the IC50, lay at 0.414 µM.
In the case of `C=CC(=O)N1CCN(c2nc(O[C@@H]3CN(C)C[C@H]3OCC(F)F)nc3c(Oc4c(Cl)c(F)cc5[nH]ncc45)nccc23)CC1` (racemic) [Example 32I, rac-1-[4-(8-[(5-chloro-6-fluoro-1H-indazol-4-yl)oxy]-2-{[(3R,4R)-4-(2,2-difluoro-ethoxy)-1-methyl-pyrrolidin-3-yl]oxy}pyrido [3,4-d]pyrimidin-4-yl)piperazin-1-yl]prop-2-en-1-one], the “MSRA (% modification) 5.0 μM 0.017 hr” value in assay [1] came to 19%. The IC50 in assay [2] was found to be 0.168 µM.
As for `C=CC(=O)N1CCN(c2nc(O[C@@H]3CCC[C@H]3N(C)C)nc3c(Oc4c(C)ccc5[nH]ncc45)nccc23)CC1` [Example 11B, 1-[4-(2-{[(1R,2R)-2-(dimethylamino)cyclopentyl]oxy}-8-[(5-methyl-1H-indazol-4-yl)oxy]pyrido[3,4-d]pyrimidin-4-yl)piperazin-1-yl]prop-2-en-1-one], the “MSRA (% modification) 10 μM 0.25 hr” value in assay [1] stood at 21%. In assay [2], the IC50 was 4.89 µM.
Regarding `C=CC(=O)N1CCN(c2nc(OC[C@@H]3C[C@@H](OC)CN3C)nc3c(Oc4c(Cl)c(F)cc5[nH]ncc45)nccc23)CC1` [Example 13H, 1-[4-(8-[(5-chloro-6-fluoro-1H-indazol-4-yl)oxy]-2-{[(2S,4R)-4-methoxy-1-methylpyrrolidin-2-yl]methoxy}pyrido[3,4-d]pyrimidin-4-yl)piperazin-1-yl]prop-2-en-1-one], in assay [1], the “MSRA (% modification) 5.0 μM 0.25 hr” value is given as 65% and the “MSRA (% modification) 10 μM 0.25 hr” value was 83%. Further, the IC50 in assay [2] was found to be 0.311 µM.
Take `C=CC(=O)N1CCN(c2nc(NCCC(=O)NC)nc3c(Oc4c(C)ccc5[nH]ncc45)cccc23)CC1` [Example 13F, N^3-{4-(4-acryloylpiperazin-1-yl)-8-[(5-methyl-1H-indazol-4-yl)oxy]quinazolin-2-yl}-N-methyl-β-alaninamide]: in assay [1], the “MSRA (% modification) 10 μM 0.50 hr” value is 26%. In assay [2], this molecule returned an IC50 of 17 µM.
With `C=CC(=O)N1CCN(c2nc(O[C@@H]3CN(C)C[C@H]3OC)nc3c(Oc4c(Cl)c(F)cc5[nH]ncc45)nccc23)CC1` [Example 10I, 1-[4-(8-[(5-chloro-6-fluoro-1H-indazol-4-yl)oxy]-2-{[(3R,4R)-4-methoxy-1-methylpyrrolidin-3-yl]oxy}pyrido[3,4-d]pyrimidin-4-yl)piperazin-1-yl]prop-2-en-1-one], in assay [1], the “MSRA (% modification) 5.0 μM 0.017 hr” value was 70% and the “MSRA (% modification) 5.0 μM 0.25 hr” value is 82%. The molecule further registered an IC50 in assay [2] of 0.022 µM.
For `C=CC(=O)N1CCN(c2ncnc3c(Oc4c(C)c(Cl)cc5[nH]ncc45)nccc23)CC1` [Example 14A, 1-(4-{8-[(6-chloro-5-methyl-1H-indazol-4-yl)oxy]pyrido[3,4-d]pyrimidin-4-yl}piperazin-1-yl)prop-2-en-1-one], in assay [1], the “MSRA (% modification) 5.0 μM 0.25 hr” value turned out to be 46% and the “MSRA (% modification) 10 μM 0.50 hr” value is 67%. Also, the IC50 in assay [2] stood at 0.545 µM.
As for `C=CC(=O)N1CCN(c2nc(Oc3cccnc3OC)nc3c(Oc4c(Cl)c(F)cc5[nH]ncc45)nccc23)CC1` [Example 08I, 1-(4-{8-[(5-chloro-6-fluoro-1H-indazol-4-yl)oxy]-2-[(2-methoxy-pyridin-3-yl)oxy]pyrido [3,4-d]pyrimidin-4-yl}piperazin-1-yl)prop-2-en-1-one], the “MSRA (% modification) 5.0 μM 0.25 hr” value in assay [1] amounted to 65%. The molecule further had an IC50 in assay [2] of 0.265 µM.
Take `C=CC(=O)N1CCN(c2nc(O[C@@H]3CN(C)C[C@H]3OC)nc3c(Oc4c(Cl)c(F)cc5[nH]ncc45)nc(C)cc23)CC1` [Example 01K, 1-[4-(8-[(5-chloro-6-fluoro-1H-indazol-4-yl)oxy]-2-{[(3R,4R)-4-methoxy-1-methylpyrrolidin-3-yl]oxy}-6-methylpyrido[3,4-d]pyrimidin-4-yl)piperazin-1-yl]prop-2-en-1-one]: in assay [1], the “MSRA (% modification) 5.0 μM 0.017 hr” value is on record as 65%. This molecule also came in with an IC50 in assay [2] of 0.065 µM.
As to `C=CC(=O)N1CCN(c2nc(OCCN(C)C)nc3c(Oc4c(C)ccc5[nH]ncc45)cccc23)CC1` [Example 03E, 1-(4-{2-[2-(dimethylamino)ethoxy]-8-[(5-methyl-1H-indazol-4-yl)oxy]quinazolin-4-yl}piperazin-1-yl)prop-2-en-1-one], the “MSRA (% modification) 10 μM 0.50 hr” value in assay [1] amounted to 40%. The molecule further yielded an IC50 in assay [2] of 1.44 µM.
Turning to `C=CC(=O)N1CCN(c2nc(Oc3cccnc3CC)nc3c(Oc4c(Cl)c(F)cc5[nH]ncc45)nccc23)CC1` [Example 03I, 1-(4-{8-[(5-chloro-6-fluoro-1H-indazol-4-yl)oxy]-2-[(2-ethyl-pyridin-3-yl)oxy]pyrido[3,4-d]pyrimidin-4-yl}piperazin-1-yl)prop-2-en-1-one], in assay [1], the “MSRA (% modification) 5.0 μM 0.25 hr” value was determined as 52%. In assay [2], half-maximal inhibition (IC50) was put at 0.06 µM.
In the case of `C=CC(=O)N1CCN(c2nc(O[C@@H]3CN(C(C)C)C[C@H]3OC)nc3c(Oc4c(Cl)c(F)cc5[nH]ncc45)nccc23)CC1` [Example 20I, 1-[4-(8-[(5-chloro-6-fluoro-1H-indazol-4-yl)oxy]-2-{[(3R,4R)-4-methoxy-1-(propan-2-yl)pyrrolidin-3-yl]oxy}pyrido [3,4-d]pyrimidin-4-yl)piperazin-1-yl]prop-2-en-1-one], in assay [1], the “MSRA (% modification) 5.0 μM 0.017 hr” value is recorded as 73%. The IC50 in assay [2] was 0.016 µM.
